{"source": "patent US4430263A", "about": "“Hapten-inhibitor immunoassay” (Abbott Laboratories, priority 1980, dated 1984)", "system": "sheep T4 antibody (gamma globulin / IgG fraction from sheep antiserum)", "assay": "Binding constant of T4 antibody binding sites (footnote to Table I, antibody modulation of STI-T4)", "conditions": "approximately 7.4 × 10^-8 M antibody binding sites; gamma globulin chromatographically isolated from sheep T4 antibody", "description": "A working solution of 2.0 mg/ml gamma globulin (chromatographically isolated from sheep T4 antibody) is prepared in 0.1 M HEPES (N-2-hydroxyethylpiperazine-N'-2-ethanesulfonic acid) buffer, pH 8.0, containing 0.1% gelatin. A stock solution of the STI-T4 (soybean trypsin inhibitor-thyroxine) conjugate (8×10^-7 M) is also prepared in HEPES-gelatin buffer, pH 8.0. A trypsin stock solution is made at 1×10^-7 M in dilute HCl, pH 3.0, and stored at 4° C. The trypsin working reagent is diluted to a concentration of 8.2×10^-8 M with HCl gelatin, pH 3.0. Equal volumes (50 μl) of the thyroxine STI conjugate and antibody are mixed and incubated at room temperature for 5 minutes. Trypsin is then added to the mixture, incubated for 30 seconds, and a 25 μl portion of the assay mixture diluted into a cuvette with 250 μl of substrate (0.5 mM benzoylphenylalanylvalyl arginine p-nitroaniline in 0.05 M Tris pH 8.1 with 0.01 M CaCl2). The change in absorbance with time (t=5.5 minutes less t=0.5 minutes) is recorded using a Bichromatic Analyzer equipped with a 380/450 mμ filter. The following table gives the results for a suitable conjugate prepared in Example I.\nA working solution of 1 mg/ml anti-T4 IgG (from sheep antiserum) is prepared in barbital buffer with gelatin. The approximate concentration of binding sites from […] analysis is 1.2×10^-7 M."}
{"smiles": "N[C@@H](Cc1cc(I)c(Oc2cc(I)c(O)c(I)c2)c(I)c1)C(=O)O", "note": "[thyroxine]", "values": [{"measurement": "K (antibody binding sites)", "result": "~1.3 × 10^9"}]}
